PubChem BioAssay (NCI)
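Briefly, cells in 96-well plates were exposed to five compound concentrations for 48 h, and endpoints were estimated by linear interpolation. Definition used: TGI = concentration required for complete inhibition of growth.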

Legend:
Test in all cases: NCI anticancer screen, dose series, 48 h
[1] = tested on: A498 renal
[2] = tested on: A549 NSCLC
[3] = tested on: ACHN renal
[4] = tested on: CAKI-1 renal
[5] = tested on: CCRF-CEM leukemia
[6] = tested on: COLO 205 colon
[7] = tested on: DLD-1 colon
[8] = tested on: DMS 114 small cell lung
[9] = tested on: DMS 273 small cell lung
[10] = tested on: EKVX NSCLC
[11] = tested on: HCC-2998 colon
[12] = tested on: HCT-116 colon
[13] = tested on: HCT-15 colon
[14] = tested on: HL-60(TB) leukemia
[15] = tested on: HOP-62 NSCLC
[16] = tested on: HOP-92 NSCLC
[17] = tested on: HT29 colon
[18] = tested on: IGROV1 ovarian
[19] = tested on: K-562 leukemia
[20] = tested on: KM12 colon
[21] = tested on: KM20L2 colon
[22] = tested on: LXFL 529 NSCLC
[23] = tested on: M14 melanoma
[24] = tested on: M19-MEL melanoma
[25] = tested on: MALME-3M melanoma
[26] = tested on: MOLT-4 leukemia
[27] = tested on: NCI-H23 lung
[28] = tested on: NCI-H460 lung
[29] = tested on: NCI-H522 lung
[30] = tested on: OVCAR-3 ovarian
[31] = tested on: OVCAR-4 ovarian
[32] = tested on: OVCAR-5 ovarian
[33] = tested on: OVCAR-8 ovarian
[34] = tested on: RPMI-8226 leukemia
[35] = tested on: SF-268 CNS
[36] = tested on: SF-295 CNS
[37] = tested on: SF-539 CNS
[38] = tested on: SK-MEL-2 melanoma
[39] = tested on: SK-MEL-28 melanoma
[40] = tested on: SK-MEL-5 melanoma
[41] = tested on: SK-OV-3 ovarian
[42] = tested on: SN12C renal
[43] = tested on: SNB-19 CNS
[44] = tested on: SNB-78 CNS
[45] = tested on: SR leukemia
[46] = tested on: SW-620 colon
[47] = tested on: TK-10 renal
[48] = tested on: U251 CNS
[49] = tested on: UACC-257 melanoma
[50] = tested on: UACC-62 melanoma
[51] = tested on: UO-31 renal
[52] = tested on: XF 498 CNS
[53] = tested on: 786-0 renal
[54] = tested on: HOP-18 NSCLC
[55] = tested on: LOX IMVI melanoma
[56] = tested on: NCI-H226 lung
[57] = tested on: RXF 393 renal
[58] = tested on: SNB-75 CNS

Measured: TGI

CC(=O)c1c(P(=O)(OC(C)C)OC(C)C)nn(-c2ccc([N+](=O)[O-])cc2)c1C
not listed: [53] | [54] | [55] | [56] | [57] | [58]
> 100 µM: all other assays above

COc1ccc2cc3[n+](cc2c1O)CCc1cc2c(cc1-3)OCO2
not listed: [4] | [8] | [9] | [16] | [22] | [40] | [45]
> 100 µM: all other assays above
